Data reported in US20040058957A1, “Benzothiophene derivatives and herbicidal compositions containing the same” (priority 2000, published 2004).

Tests used:
Type in all cases: in vivo
Conditions in all cases: rated 30 days after application
[1] = system: Scirpus juncoides; assay: Submersion test, treatment 10 days after transplantation: herbicidal effect
Description: (§1) A mixture consisting of 57 parts by weight of talc and 40 parts by weight of bentonite as carrier and 3 parts by weight of sodium alkylbenzenesulfonate as surfactant was pulverized and mixed uniformly to obtain a carrier for wettable powder. Each herbicidal composition was prepared by uniformly pulverizing and mixing 90 parts by weight of the carrier for wettable powder and 10 parts by weight of the benzothiophene derivative produced in each example.
(§2) Seeds of Scirpus juncoides were sowed onto paddy field soil in a Wagner pot of 1/2000 are. Then, rice seedlings of 2.5 leaf stage were transplanted in the soil. Water was pored into the pot so as to submerge the soil at a depth of 3 cm. The pot was placed in a greenhouse maintained at 20 to 25° C. for vegetation. After 10 days from transplantation of the rice seedlings, a predetermined amount of the herbicidal composition prepared in the step [1] was applied to the pot. After 30 days from the application of the herbicidal composition, the herbicidal effect and injury to the paddy rice were determined.
(§3) The herbicidal effect and the injury to crops in the above tests (1) and (2) were evaluated based on the following ratings.
(§4) The degree of weed control (%) was calculated from the weights of the above-ground parts of fresh weeds in the treated area and the untreated area using the following equation:
(§5) Degree of weed control (%)=[1−(weight of weeds in treated area)/(weight of weeds in untreated area)]×100
(§6) The herbicidal effect was determined according to the following ratings: […]

[2] = system: Scirpus juncoides; assay: Submersion test, treatment 3 days after transplantation: herbicidal effect
Description: as §1
as §2, with “3” for “10”
as §3, §4, §5, §6

[3] = system: paddy rice; assay: Submersion test, treatment 3 days after transplantation: injury to paddy rice; set-up: key: 0: No injury; 1: Substantially no injury; 2: Slight injury; 3: Some injury; 4: Remarkable injury; 5: Almost all crops dead
Description: A mixture consisting of 57 parts by weight of talc and 40 parts by weight of bentonite as carrier and 3 parts by weight of sodium alkylbenzenesulfonate as surfactant was pulverized and mixed uniformly to obtain a carrier for wettable powder. […] Then, rice seedlings of 2.5 leaf stage were transplanted in the soil. Water was pored into the pot so as to submerge the soil at a depth of 3 cm. The pot was placed in a greenhouse maintained at 20 to 25° C. for vegetation. […] After 30 days from the application of the herbicidal composition, the herbicidal effect and injury to the paddy rice were determined. […] The injury to crops was evaluated according to the following ratings: [table]

Compound | Herbicidal effect Scirpus juncoides ([1]; application rate 100 g/ha) | Herbicidal effect Scirpus juncoides ([1]; application rate 200 g/ha) | Herbicidal effect Scirpus juncoides ([2]; application rate 100 g/ha) | Herbicidal effect Scirpus juncoides ([2]; application rate 200 g/ha) | Injury paddy rice ([3]; application rate 100 g/ha) | Injury paddy rice ([3]; application rate 200 g/ha)
CCSC1Cc2c(ccc(C(=O)C3=C(Cl)CCCC3=O)c2Cl)S1(=O)=O (stereo not drawn) [Compound No. 19, 4-chloro-2-ethylthio-5-(3-chloro-1-oxo-2-cyclohexen-2-yl)carbonyl-2,3-dihydrobenzothiophene 1,1-dioxide] | 4 (70% or higher but less than 90%) | 5 (90% or higher (almost completely dead)) | 5 (90% or higher (almost completely dead)) | 5 (90% or higher (almost completely dead)) | 0 | 0
COC(=O)CSC1Cc2c(ccc(C(=O)C3=C(Cl)CCCC3=O)c2Cl)S1(=O)=O (stereo not drawn) [Compound No. 27, 4-chloro-2-(methoxycarbonylmethyl)thio-5-(3-chloro-1-oxo-2-cyclohexen-2-yl)carbonyl-2,3-dihydrobenzothiophene 1,1-dioxide] | 4 (70% or higher but less than 90%) | 5 (90% or higher (almost completely dead)) | 4 (70% or higher but less than 90%) | 5 (90% or higher (almost completely dead)) | 0 | 0
CSC1Cc2c(Cl)c(C(=O)C3=C(SCCO)CCCC3=O)cc(C)c2S1(=O)=O (stereo not drawn) [Compound No. 50, 4-chloro-7-methyl-2-methylthio-5-[3-(2-hydroxyethyl)thio-1-oxo-2-cyclohexen-2-yl]carbonyl-2,3-dihydrobenzothiophene 1,1-dioxide] | 5 (90% or higher (almost completely dead)) | 5 (90% or higher (almost completely dead)) | 5 (90% or higher (almost completely dead)) | 5 (90% or higher (almost completely dead)) | 0 | 0
CCSC1Cc2c(ccc(C(=O)C3C(=O)CCCC3=O)c2Cl)S1(=O)=O (stereo not drawn) [Compound No. 2, 4-chloro-2-ethylthio-5-(1,3-cdioxocyclohex-2-yl)carbonyl-2,3-cdihydrobenzothiophene 1,1-dioxide] | 5 (90% or higher (almost completely dead)) | 5 (90% or higher (almost completely dead)) | 5 (90% or higher (almost completely dead)) | 5 (90% or higher (almost completely dead)) | 0 | 0
CSC1Cc2c(ccc(C(=O)C3C(=O)CCCC3=O)c2Br)S1(=O)=O (stereo not drawn) [Compound No. 41, 4-bromo-2-methylthio-5-(1,3-dioxocyclohex-2-yl)carbonyl-2,3-dihydrobenzothiophene 1,1-dioxide] | 5 (90% or higher (almost completely dead)) | 5 (90% or higher (almost completely dead)) | 5 (90% or higher (almost completely dead)) | 5 (90% or higher (almost completely dead)) | 0 | 0
CSC1Cc2c(ccc(C(=O)C3=C(SCCO)CCCC3=O)c2Cl)S1(=O)=O (stereo not drawn) [Compound No. 31, 4-chloro-2-methylthio-5-[3-(2-hydroxyethyl)thio-1-oxo-2-cyclohexen-2-yl]carbonyl-2,3-dihydrobenzothiophene 1,1-dioxide] | 5 (90% or higher (almost completely dead)) | 5 (90% or higher (almost completely dead)) | 5 (90% or higher (almost completely dead)) | 5 (90% or higher (almost completely dead)) | 0 | 0
CSC1Cc2c(ccc(C(=O)C3=C(Sc4nccn4C)CCCC3=O)c2Cl)S1(=O)=O (stereo not drawn) [Compound No. 35, 4-chloro-2-methylthio-5-[3-(1-methylimidazol-2-yl)thio-1-oxo-2-cyclohexen-2-yl]carbonyl-2,3-dihydrobenzothiophene 1,1-dioxide] | 4 (70% or higher but less than 90%) | 5 (90% or higher (almost completely dead)) | 4 (70% or higher but less than 90%) | 5 (90% or higher (almost completely dead)) | 0 | 0
C[S+]([O-])C1Cc2c(ccc(C(=O)C3=C(Cl)CCCC3=O)c2Cl)S1(=O)=O (single isomer, unassigned) [Compound No. 28, 4-chloro-2-methanesulfinyl-5-(3-chloro-1-oxo-2-cyclohexen-2-yl)carbonyl-2,3-dihydrobenzothiophene 1,1-dioxide] | 5 (90% or higher (almost completely dead)) | 5 (90% or higher (almost completely dead)) | 5 (90% or higher (almost completely dead)) | 5 (90% or higher (almost completely dead)) | 0 | 0
CSC1Cc2c(Cl)c(C(=O)C3=C(n4cccn4)CCCC3=O)cc(C)c2S1(=O)=O (stereo not drawn) [Compound No. 52, 4-chloro-7-methyl-2-methylthio-5-[3-(pyrazol-1-yl) -1-oxo-2-cyclohexen-2-yl]carbonyl-2,3-dihydrobenzothiophene 1,1-dioxide] | 4 (70% or higher but less than 90%) | 5 (90% or higher (almost completely dead)) | 4 (70% or higher but less than 90%) | 5 (90% or higher (almost completely dead)) | 0 | 0
CSC1Cc2c(ccc(C(=O)C3=C(SCC(C)O)CCCC3=O)c2Cl)S1(=O)=O (stereo not drawn) [Compound No. 33, 4-chloro-2-methylthio-5-[3-(2-hydroxy-1-propyl)thio-1-oxo-2-cyclohexen-2-yl]carbonyl-2,3-dihydrobenzothiophene 1,1-dioxide] | 4 (70% or higher but less than 90%) | 5 (90% or higher (almost completely dead)) | 4 (70% or higher but less than 90%) | 5 (90% or higher (almost completely dead)) | 0 | 0
COCCSC1Cc2c(ccc(C(=O)C3C(=O)CCCC3=O)c2Cl)S1(=O)=O (stereo not drawn) [Compound No. 5, 4-chloro-2-(2-methoxyethyl)thio-5-(1,3-dioxocyclohex-2-yl)carbonyl-2,3-dihydrobenzothiophene 1,1-dioxide] | 5 (90% or higher (almost completely dead)) | 5 (90% or higher (almost completely dead)) | 5 (90% or higher (almost completely dead)) | 5 (90% or higher (almost completely dead)) | 0 | 0
CS(=O)(=O)C1Cc2c(ccc(C(=O)C3=C(Cl)CCCC3=O)c2Cl)S1(=O)=O (stereo not drawn) [Compound No. 18, 4-chloro-2-methanesulfonyl-5-(3-chloro-1-oxo-2-cyclohexen-2-yl)carbonyl-2,3-dihydrobenzothiophene 1,1-dioxide] | 4 (70% or higher but less than 90%) | 5 (90% or higher (almost completely dead)) | 4 (70% or higher but less than 90%) | 5 (90% or higher (almost completely dead)) | 0 | 0
CSC1Cc2c(ccc(C(=O)C3=C(SCCOC(C)=O)CCCC3=O)c2Cl)S1(=O)=O (stereo not drawn) [Compound No. 34, 4-chloro-2-methylthio-5-[3-(2-acetoxyethyl)thio-1-oxo-2-cyclohexen-2-yl]carbonyl-2,3-dihydrobenzothiophene 1,1-dioxide] | 4 (70% or higher but less than 90%) | 5 (90% or higher (almost completely dead)) | 4 (70% or higher but less than 90%) | 5 (90% or higher (almost completely dead)) | 0 | 0
